# Experimental data: patent publication US11214564B2, “Compounds with thymine skeleton for use in medicine” (TECHNISCHE UNIVERSITÄT DRESDEN, priority 2019, dated 2022)
# Legend:
# [1] = system: RPMI 8226 multiple myeloma cells; experiment: Chemoresistance assay, RPMI 8226 cells with Bortezomib; format: cell-based, human; conditions: for resensitization of chemoresistant RPMI 8226 multiple myeloma cells to Bortezomib (relative cell number): rising Bortezomib 0.5-1 nM or 0.75-1.3 nM, BVDU 30 μM, compounds 1 μM or lower, FIG. 1a
# Text: (§1) In a chemoresistance assay, a HSP27 dependent resistance to a cytostatic drug is induced in cultured cells by slowly increasing the dose of the cytostatic over several cell passages. This approach is valid for multiple cell types and cytostatic drugs and allowed us to test compounds according to the invention for their ability to inhibit HSP27 and reestablish susceptibility of the resistant cells to the cancer drug.
# RPM-8226 cells, a human multiple myeloma cell line, were obtained from DSMZ (Leibniz Institute DSMZ-German Collection of Microorganisms and Cell Cultures). Cells were grown in RPMI 1640 medium (FG 1235; Biochrom AG, Berlin, Germany) supplemented with 10% (v/v) heat-inactivated fetal bovine serum in a humidified atmosphere containing 5% CO2 at 37° C. Logarithmically growing cells were seeded at a density of 100,000 cells/ml and incubated with Bortezomib (Velcade) in combination with or without test compounds. Cells were periodically counted using C-Chip Neubauer-improved counting chambers (Peqlab) and serially passaged. Cells were maintained below 1,000,000 cells/ml and typically passaged when the cell count reached 800,000 cells/ml. The starting dose of Bortezomib was typically 0.1 ng/ml and the concentration of Bortezomib was increased with each passage, e.g.: 1st passage, 0.1 ng/ml Bortezomib, 2nd passage 0.2 ng/ml Bortezomib, 3rd passage 0.3 ng/ml Bortezomib, etc.
# Over 3-4 passages with increasing concentration of Bortezomib, cells begin to show resistance and finally grow at the same rate as untreated cells.
# (§2) The addition of HSP27 inhibitors prevents development of chemoresistance and reestablishes the killing effect of Bortezomib. Cell numbers are determined at the end of the final passage to compare their growth rates.
# (§3) As a reference compound, BVDU was tested at a concentration of 30 μM as previously described (Heinrich et al. (2016)). The compounds according to the invention were tested at a concentration of 1 μM or lower (see below). Test compounds were added at the start of the experiment and again after each passage and their concentrations remained unchanged throughout. […] The appropriate non-toxic dose of the test compound was determined in a dose-finding experiment beforehand.
# FIG. 1a: Results of chemoresistance assay showing the resensitization of chemoresistant RPMI 8226 multiple myeloma cells to Bortezomib after treatment with test compounds. RPMI-8226 cells (100,000) were seeded and cultured in the presence of rising concentrations of Bortezomib (0.5-1 nM or 0.75-1.3 nM) and HSP27 inhibitor, and passaged every 4-7 days. Cell counts were taken after the last passage at the highest concentration of Bortezomib and relative cell number determined. Test compounds were BVDU, and Compound 12 and Compound 4, according to the invention.
# [2] = system: 2950-K9 mouse colon carcinoma cells; experiment: Chemoresistance assay, 2950-K9 cells with 5-Fluorouracil; format: cell-based; conditions: rising 5-FU 12-20 nM; BVDU 30 μM, compounds 1 μM or lower; FIG. 1b
# Text: as §1, §2, §3
# FIG. 1b: Results of chemoresistance assay showing the resensitization of chemoresistant 2950-K9 mouse colon carcinoma cells to the drug 5-Fluorouracil (5-FU) after treatment with test compounds. 2950-K9 cells (100,000) were seeded and cultured in the presence of rising concentrations of 5-FU (12-20 nM) and HSP27 inhibitor, and passaged every 4-7 days. Cell counts were taken after the last passage at the highest concentration of 5-FU and relative cell number determined. Test compounds were BVDU, and Compound 5, Compound 12 and Compound 4, according to the invention.
# HSP27 = HSP27 (Homo sapiens, UniProt P04792); experiment: Aggregation assay: HSP27 chaperone activity on heat-induced aggregation of citrate synthase; format: biochemical; conditions: compound 10 μM; 1.44 μM CS, 481 nM HSP27, 43° C., 500 nm
# Chain of HSP27 (P04792 whole entry): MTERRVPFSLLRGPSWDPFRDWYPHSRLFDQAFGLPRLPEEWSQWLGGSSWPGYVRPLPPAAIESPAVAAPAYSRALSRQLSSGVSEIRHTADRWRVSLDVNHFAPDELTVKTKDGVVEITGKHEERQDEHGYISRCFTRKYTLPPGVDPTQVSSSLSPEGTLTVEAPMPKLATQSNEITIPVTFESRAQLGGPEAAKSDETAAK
smiles,measurement,setting,value
"O=c1[nH]c(=O)n([C@H]2C[C@H](O)[C@@H](CO)O2)cc1/C=C/Br [BVDU, (E)-5-(2-bromovinyl)-2′-deoxyuridine, reference compound]",influence on cell growth of compound alone (control without cytostatic),[1]; cells treated with only BVDU (30 μM) or test compound (1 μM or lower),did not influence cell growth
same,resensitization of chemoresistant RPMI 8226 multiple myeloma cells to Bortezomib (relative cell number),[1],resensitization
same,resensitization of chemoresistant 2950-K9 mouse colon carcinoma cells to 5-Fluorouracil (relative cell number),[2],resensitization
"O=C(Cc1cccc(-c2ccc(Cl)cc2Cl)c1)Nc1ccc(-n2ccc(=O)[nH]c2=O)cc1 [Compound 5, 2-(2′,4′-dichloro-[1,1′-biphenyl]-3-yl)-N-(4-(2,4-dioxo-3,4-dihydro-pyrimidin-1(2H)-yl)phenyl) acetamide]","aggregation value related to the value from reference experiment (CS + HSP27 + BVDU), which was set at 1.0",HSP27,1.39
same,resensitization of chemoresistant 2950-K9 mouse colon carcinoma cells to 5-Fluorouracil (relative cell number),[2],resensitization
"O=C(Cc1cccc(-c2ccc(Cl)c(Cl)c2)c1)Nc1ccc(-n2ccc(=O)[nH]c2=O)cc1 [Compound 4, 2-(3′,4′-dichloro-[1,1′-biphenyl]-3-yl)-N-(4-(2,4-dioxo-3,4-dihydro-pyrimidin-1(2H)-yl)phenyl) acetamide]",resensitization of chemoresistant RPMI 8226 multiple myeloma cells to Bortezomib (relative cell number),[1],resensitization
same,"aggregation value related to the value from reference experiment (CS + HSP27 + BVDU), which was set at 1.0",HSP27,1.39
same,resensitization of chemoresistant 2950-K9 mouse colon carcinoma cells to 5-Fluorouracil (relative cell number),[2],resensitization
"O=C(Cc1cccc(-c2ccc(Cl)c(Cl)c2)c1)Nc1ccc(-n2cc(F)c(=O)[nH]c2=O)cc1 [Compound 12, 2-(3′,4′-dichloro-[1,1′-biphenyl]-3-yl)-N-(4-(5-fluoro-2,4-dioxo-3,4-dihydro-pyrimidin-1(2H)-yl)phenyl) acetamide]",resensitization of chemoresistant RPMI 8226 multiple myeloma cells to Bortezomib (relative cell number),[1],resensitization
same,"aggregation value related to the value from reference experiment (CS + HSP27 + BVDU), which was set at 1.0",HSP27,1.57
same,resensitization of chemoresistant 2950-K9 mouse colon carcinoma cells to 5-Fluorouracil (relative cell number),[2],resensitization
